The values below come from patent publication US20070003536A1, “Topical skin compositions, their preparation, and their use” (priority 2000, published 2007).

The target in assay [1] is T1, MMP-1 (interstitial collagenase) (Homo sapiens, UniProt P03956).
T1 construct: purchased Amersham
T1 sequence (P03956 100-469): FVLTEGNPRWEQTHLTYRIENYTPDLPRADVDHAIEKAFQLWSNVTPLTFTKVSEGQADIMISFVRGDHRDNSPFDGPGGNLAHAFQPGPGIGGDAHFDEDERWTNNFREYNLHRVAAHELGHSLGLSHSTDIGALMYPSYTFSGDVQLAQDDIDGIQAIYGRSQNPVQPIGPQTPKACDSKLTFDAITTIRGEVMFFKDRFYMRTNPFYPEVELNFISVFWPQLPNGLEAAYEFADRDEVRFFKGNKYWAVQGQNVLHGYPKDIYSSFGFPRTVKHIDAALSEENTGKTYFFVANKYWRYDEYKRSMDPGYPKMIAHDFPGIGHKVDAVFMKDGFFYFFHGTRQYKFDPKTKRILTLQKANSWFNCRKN
The assay is described as follows: MMP-1 activity kit (Amersham). Format: biochemical. To be noted: samples diluted to 100 mg/ml using PBS; FIG. 5. An excerpt: FIG. 5 is a graph showing the effect of samples on MMP-1 activity. The data are expressed as % control MMP-1 activity. The horizontal line denotes 100% activity.
The matrix metalloproteinases (MMP) are a group of zinc dependent enzymes, which degrade varying components of the extracellular matrix in both normal and diseased tissue. MMP-1 (interstitial collagenase) is thought to initiate the cleavage of fibrillar collagen while MMP-9 (gelatinase) digests the denatured collagen fragments generated by MMP-1. The products of MMP-9 digestion are then free to be incorporated into new collagen fibrils. Elastase breaks down elastin. The expression of these enzymes is under strict control and changes as individuals age or are exposed to UV irradiation. Because MMP-1 is involved in initiation of collagen breakdown, it would be advantageous for skin care products to inhibit MMP-1 activity. […] Finally, elastase should be inhibited as to prevent digestion of elastin and the […] of the skin.
Commercially available kits were used for testing the effect of the samples on the activity of the MMPs of interest. For MMP-1, a kit from Amersham was used according to the manufacturer's specifications. For MMP-9 and Elastase, kits from Molecular Probes were used. The samples were prepared in the solvent noted in table I at stock concentrations of 100 mg/ml. […]

Assay [2] deals with RAW 264.7 cells. In words: NO production by LPS stimulated RAW 264.7 cells (Griess reagent). The class given is cell-based, Murine. To be noted: for inhibitory effect on nitrite accumulation in culture supernatants: LPS stimulated RAW cells, in words; for Nitrite produced: LPS 100 ng/ml, LPS control 901.7. The procedure: FIG. 8 is a graph showing the effect of samples on NO production by RAW 264.7 cells. Data are expressed as % NO produced compared to the LPS stimulated positive control. L6=Lipochroman-6, NT=Nutriene tocotrienols, TQS=γ-Tocopherylquinone S, VC=Viapure Citrus, SZ=Soybean Zymbiosome, and NPR=NAB Pikea robusta.
Cells in skin can produce nitric oxide (NO) when exposed to UV light, and NO thus produced has the potential to induce age associated changes in skin. This study was performed in order to screen a panel of cosmetics and skin care raw materials for their effect on NO production by RAW 264.7 cells.
Murine RAW 264.7 cells were seeded in a 96 well plate at 1×10^5 cells /well. The plate was incubated overnight. The following day, the cells were treated with the samples at 0.001, 0.01, and 0.1% for 2 hours. The samples are listed below in Table II. Following the exposure period, LPS was added to the wells at 100 ng/ml. The plate was incubated overnight. Equal volumes of culture supernatant and Griess reagent were incubated for 15 min at room temperature and the absorbance at 540 nm was read. The amount of nitrite in the samples was calculated from a standard curve generated with sodium nitrite.
A general note: Nitrite, measured by Griess reagent, commonly stands in for NO production.

The subject of assay [3] is Human dermal fibroblasts (Hs-27). The assay is described as follows: Procollagen secretion by fibroblasts, energy booster samples with co-stimuli, Example 4. The class given is cell-based. To be noted: Media line: stimulus alone, no energy booster (Centella asiatica, vitamin C 0.001%; Biodynes EMPP 0.1%); media control 1533. Here is the method: (§1) Four new samples that boost cellular energy were tested for their ability to augment extracellular matrix component production in response to Centella and Biodynes. Human dermal fibroblasts were used as these cells actively synthesize extracellular matrix components. In addition to measuring procollagen and elastin levels, hyaluronic acid levels were also measured. Hyaluronic acid is a member of the glycosaminoglycan family of compounds. Glycosaminoglycans make up the ground substance of connective tissue, and along with elastin, help provide elasticity to skin. They also hold water and therefore provide viscosity and hydrating properties.
(§2) Samples were diluted in media. Centella asiatica and vitamin C were prepared at 0.001%. Biodynes EMPP was prepared at 0.1%. Centella asiatica was prepared as an extract in DMSO:ethanol:water at 50:30:20. The “energy booster” samples, Seanergilium algae extract, Thiotaine, Sepitonic, and Phytovityl corn kernel extract, were all prepared in media at 0.01, 0.1, and 1.0%. Human dermal fibroblasts (Hs-27) were plated in 24 well plates and were incubated overnight. The cells were treated with the samples at the concentrations indicated for 2 consecutive days. […]

For assay [4] the test system is unchanged. The assay is described as follows: Elastin secretion by fibroblasts, energy booster samples with co-stimuli, Example 4. Format: cell-based. To be noted: Media line: stimulus alone, no energy booster (Centella asiatica, vitamin C 0.001%; Biodynes EMPP 0.1%). Here is the method: as §1, §2
Assay [5] has the same test system. In words: Hyaluronic acid secretion by fibroblasts, energy booster samples with co-stimuli, Example 4. The class given is cell-based. To be noted: Media line: stimulus alone, no energy booster (Centella asiatica, vitamin C 0.001%; Biodynes EMPP 0.1%); media control 1112. Here is the method:
as §1
Samples were diluted in media. Centella asiatica and vitamin C were prepared at 0.001%. Biodynes EMPP was prepared at 0.1%. Centella asiatica was prepared as an extract in DMSO:ethanol:water at 50:30:20. The “energy booster” samples, Seanergilium algae extract, Thiotaine, Sepitonic, and Phytovityl corn kernel extract, were all prepared in media at 0.01, 0.1, and 1.0%. Human dermal fibroblasts (Hs-27) were plated in 24 well plates and were incubated overnight. […]
Data are expressed as ng hyaluronic acid/ml culture supernatant. The amount of hyaluronic acid in each supernatant was calculated from a standard curve generated using a hyaluronic acid standard supplied with the ELISA kit.

Consider `COC1=C(OC)C(=O)C(C/C=C(\C)CC/C=C(\C)CC/C=C(\C)CC/C=C(\C)CC/C=C(\C)CC/C=C(\C)CC/C=C(\C)CC/C=C(\C)CC/C=C(\C)CCC=C(C)C)=C(C)C1=O` [CoQ10, 2,3,-dimethoxy-5-methyl-6-decaprenyl-benzoquinone], for which the “effect on MMP-1 activity” value in assay [1] is given as “most potent activators”.
Turning to `COc1cc2c(cc1O)CCC(C)(C)O2` [Lipochroman-6], the “inhibitory effect on nitrite accumulation in culture supernatants” value is recorded as “most potent” in assay [2] and “more inhibitory activity than do mixed tocopherols” in assay [2] (listed as L6). Moreover, the Nitrite produced in assay [2] (dose 0.001%) stood at 1006.5 ng/mL; in assay [2] (dose 0.01%), 750.7 ng/mL; in assay [2] (dose 0.1%), 336.7 ng/mL.
`CC1=C(C)C(=O)C(CC[C@](C)(O)CCC[C@H](C)CCC[C@H](C)CCCC(C)C)=CC1=O` [g-Tocopherylquinone S]: in assay [2], the “inhibitory effect on nitrite accumulation in culture supernatants” value is recorded as “most potent”. The Nitrite produced in assay [2] (dose 0.001%) turned out to be 754.2 ng/mL; in assay [2] (dose 0.01%), 830.3 ng/mL; in assay [2] (dose 0.1%), 217.9 ng/mL.
In assay [3], `O=C1O[C@H]([C@@H](O)CO)C(O)=C1O` [Vitamin C, ascorbic acid] showed a procollagen secretion of 1744 ng/mL. For the same compound, the “elastin secretion, % media control elastin” value in assay [4] is given as 148%. Besides, the hyaluronic acid secretion in assay [5] is listed as 633 ng hyaluronic acid/ml culture supernatant.
